Literature values, collected in patent publication US6645524B2, “Oral pharmaceutical dosage forms for pulsatile delivery of an antiarrhythmic agent” (Pierce Management LLC, priority 2000, dated 2003).
Like-named read-outs stand apart in the source and are kept apart here.

Legend:
QT interval = conditions: 6 days of 80 mg twice or three times daily, 10 patients
[1] = system: patients with chronic atrial fibrillation/atrial flutter; conditions: titrated 80 mg/day to 320 mg/day after cardioversion; placebo 44 days
[2] = system: patients with histories of sustained ventricular tachyarrhythmias; conditions: versus imipramine, mexiletine, pirmenol, procainamide, propafenone and quinidine, 496 patients
[3] = system: patients with symptomatic primary paroxymal atrial fibrillation/atrial flutter; conditions: for median time to recurrence of symptomatic ECG-documented atrial fibrillation/atrial flutter: twice a day
[4] = more than 99% enantiomerically pure, given in tablets
[5] = system: high-risk post-myocardial infarction patients; conditions: 3,121 patients with left ventricular ejection fraction of 40% or below, versus placebo

SMILES: CC(C)NCC(O)c1ccc(NS(C)(=O)=O)cc1 (racemic) [sotalol]
- partial loss of repolarization effect (pharmacodynamic tolerance) (QT interval): four out of the ten patients
- median time to recurrence of ECG-documented atrial fibrillation [1]: more than 180 days
- preventing death from arrhythmias or any other cardiac cause [2]: more effective than the other agents
- patients discontinued because of adverse events ([3]; 80 mg dose level): 12%
- median time to recurrence of symptomatic ECG-documented atrial fibrillation/atrial flutter ([3]; 80 mg dose level): 106 days
- patients discontinued because of adverse events ([3]; 120 mg dose level): 18%
- median time to recurrence of symptomatic ECG-documented atrial fibrillation/atrial flutter ([3]; 120 mg dose level): 229 days
- patients discontinued because of adverse events ([3]; 160 mg dose level): 29%
- median time to recurrence of symptomatic ECG-documented atrial fibrillation/atrial flutter ([3]; 160 mg dose level): 175 days
- absorption (given with food): approximately 80%
- apparent volume of distribution (human, in vivo): two
- eliminated by renal excretion as unchanged sotalol (human, in vivo): 80-90%
- protein binding (human, in vivo): negligible
- bioavailability (no significant presystemic metabolism): completely bioavailable
- absorption (oral ingestion on an empty stomach): completely absorbed

SMILES: CC(C)NC[C@@H](O)c1ccc(NS(C)(=O)=O)cc1 [d-sotalol]
- effect on heart rate and blood pressure [4]: decreased resting and exercise heart rate without altering blood pressure
- mortality [5]: increased mortality compared with placebo
